Here are results for 13 compounds from patent publication US9133179B2, “2-methoxy-pyridin-4-yl-derivatives” (Actelion Pharmaceuticals Ltd., priority 2011, dated 2015).

Read-outs that look alike come from different tables or passages of the source.

Data set [1] deals with T1, human S1P1 (EDG1) receptor (Homo sapiens, UniProt P21453).
T1 construct: host or cells: U2OS (Tango EDG1-bla U2OS)
Nature of the data set: S1P1 β-arrestin recruitment (Tango) assay to determine EC50 values. It is filed as cell-based. The note with it: Tango-EDG1 bla U2OS cells, 16 h incubation.

The subject of the next data set is circulating lymphocytes. Nature of the data set: Assessment of in vivo efficacy: circulating lymphocytes after oral administration to Wistar rats. Set-up: species or system rat. The note with it: 6 h after oral administration of 10 mg/kg, normotensive male Wistar rats, compared to vehicle group; for change in vivo at 10 mg/kg: Rattus norvegicus, Lymphocyte, read-out: Lymphocyte counts.

In data set [2] the test system is rat trachea rings. In words: Measurement of isometric force development: constriction of rat trachea rings. The note with it: for activation at 0.1 µM / activation at 1 µM: Rattus norvegicus; for activation at 0.1 µM: read-out: % trachea constriction at 0.1 μM; for activation at 1 µM: read-out: % trachea constriction at 1 μM.
Procedure: (§1) Measurement of Isometric Force Development
(§2) Female Wistar rats are euthanized by exposure to CO2. The tracheae are excised and rings from the lower segments are prepared. […] A resting force of 2 g (20 mN) is applied to the ring preparation, and changes in force generation are measured using an isometric force recorder (EMKA Technologies Inc., Paris, France). Viability of rings is assessed by exposure to a depolarizing concentration of KCl (50 mM). Contraction of trachea is expressed as a percentage of the response to KCl.
(§3) The compounds are prepared as stock solutions of 0.3 mM in pure DMSO.
Data set [3] concerns rat trachea rings.
Procedure: as §1, §2, §3
Setting [4] is: in % of the constriction induced by 50 mM KCl.

T1 sequence (P21453 whole entry): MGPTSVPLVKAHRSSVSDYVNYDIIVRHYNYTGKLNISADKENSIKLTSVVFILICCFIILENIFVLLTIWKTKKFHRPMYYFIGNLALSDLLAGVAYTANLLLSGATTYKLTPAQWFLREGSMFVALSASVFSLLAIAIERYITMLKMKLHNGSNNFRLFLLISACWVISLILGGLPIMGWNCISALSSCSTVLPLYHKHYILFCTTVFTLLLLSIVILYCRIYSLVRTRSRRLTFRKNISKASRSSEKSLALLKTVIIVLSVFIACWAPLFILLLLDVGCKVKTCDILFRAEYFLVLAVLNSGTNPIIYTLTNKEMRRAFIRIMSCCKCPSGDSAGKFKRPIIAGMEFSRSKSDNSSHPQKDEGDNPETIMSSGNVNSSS

Consider `CCc1cc(-c2noc(-c3cc(OC)nc(C4CCCC4)c3)n2)cc(C)c1OCCCC(=O)O` [Example 6, 4-(4-(5-(2-Cyclopentyl-6-methoxypyridin-4-yl)-1,2,4-oxadiazol-3-yl)-2-ethyl-6-methylphenoxy)butanoic acid], for which a half-maximal effect in data set [1] (EC50) was put at 0.2 nM. The change in vivo at 10 mg/kg in the data set with circulating lymphocytes was -53%. In the data set with rat trachea rings [2] (setting [4]), the “% trachea constriction at 10 nM” value was below 5%, the “% trachea constriction at 30 nM” value was below 5% and the “% trachea constriction at 0.3 μM” value is listed as 91%. Besides, in the data set on rat trachea rings [2], the activation at 0.1 µM was below 5% and the activation at 1 µM was found to be 110%. In the data set with rat trachea rings [2] (rat trachea rings), the “concentration at which significant (or KCl-comparable) rat trachea constriction is shown” value is given as 300 nM.
As for `COc1cc(-c2nc(-c3cc(C)c(OCC(=O)O)c(Cl)c3)no2)cc(C2CCCC2)n1` [Example 41, 2-(2-Chloro-4-(5-(2-cyclopentyl-6-methoxypyridin-4-yl)-1,2,4-oxadiazol-3-yl)-6-methylphenoxy)acetic acid], the EC50 (commonly the concentration that produces a half-maximal response) in data set [1] worked out at 1.1 nM. In addition, in the data set with circulating lymphocytes, the change in vivo at 10 mg/kg was -49%. In addition, in the data set on rat trachea rings [2] (setting [4]), the “% trachea constriction at 10 nM” value was below 5% and the “% trachea constriction at 30 nM” value is 10%. Also, in the data set on rat trachea rings [2], the activation at 0.1 µM came out at 56% and the activation at 1 µM is 120%.
With `COc1cc(-c2nc(-c3cc(Cl)c(OCCCC(=O)O)c(OC)c3)no2)cc(C2CCCC2)n1` [Example 35, 4-(2-Chloro-4-(5-(2-cyclopentyl-6-methoxypyridin-4-yl)-1,2,4-oxadiazol-3-yl)-6-methoxyphenoxy)butanoic acid], a half-maximal response in data set [1] (EC50) required 0.627 nM. Besides, in the data set on circulating lymphocytes, the change in vivo at 10 mg/kg is -71%. For the same compound, in the data set on rat trachea rings [2] (setting [4]), the “% trachea constriction at 10 nM” value is reported as below 5% and the “% trachea constriction at 30 nM” value was below 5%. Further, in the data set on rat trachea rings [2], the activation at 0.1 µM worked out at 86% and the activation at 1 µM was found to be 108%.
Turning to `CCc1cc(-c2noc(-c3cc(OC)nc(C4CCCC4)c3)n2)cc(C)c1OC[C@@H](O)CNC(CO)CO` [Example 4], in data set [1], the EC50 came to 6.6 nM. For the same compound, the change in vivo at 10 mg/kg in the data set with circulating lymphocytes is -65%. Besides, in the data set with rat trachea rings [2] (setting [4]), the “% trachea constriction at 3 μM” value is below 5%, the “% trachea constriction at 10 μM” value is given as below 5% and the “% trachea constriction at 30 μM” value is below 5%. For the same compound, the activation at 1 µM in the data set with rat trachea rings [2] is below 5%.
In the case of `CCc1cc(-c2noc(-c3cc(OC)nc(C4CCCC4)c3)n2)cc(C)c1OCCCNC(=O)CCC(=O)O` [Example 32, 4-((3-(4-(5-(2-Cyclopentyl-6-methoxypyridin-4-yl)-1,2,4-oxadiazol-3-yl)-2-ethyl-6-methylphenoxy)propyl)amino)-4-oxobutanoic acid], the EC50 in data set [1] came out at 0.072 nM. The change in vivo at 10 mg/kg in the data set with circulating lymphocytes was -65%. Further, the “% trachea constriction at 0.3 μM” value in the data set with rat trachea rings [2] (setting [4]) worked out at 50%. Also, in the data set on rat trachea rings [2], the activation at 0.1 µM worked out at 27% and the activation at 1 µM came to 105%.
For `CCc1cc(-c2noc(-c3cc(OC)nc(C4CCCC4)c3)n2)cc(C)c1OCCNCCC(=O)O` [Example 1, 3-((2-(4-(5-(2-Cyclopentyl-6-methoxypyridin-4-yl)-1,2,4-oxadiazol-3-yl)-2-ethyl-6-methylphenoxy)ethyl)amino)propanoic acid] the same measures were 0.04 nM, -69%, 53%, below 5% and 96%.
“4-((2-(4-(5-(2-Cyclopentyl-6-methoxypyridin-4-yl)-1,2,4-oxadiazol-3-yl)-2-ethyl-6-methylphenoxy)ethyl)amino)-4-oxobutanoic acid [Example 50]”: in data set [1], the EC50 turned out to be 0.1 nM. The “concentration at which significant (or KCl-comparable) rat trachea constriction is shown” value in the data set on rat trachea rings [3] is reported as 100 nM. Further, the Lymphocyte counts in the data set on circulating lymphocytes is on record as −57%. In the data set with rat trachea rings [2] (setting [4]), the “% trachea constriction at 10 nM” value is reported as below 5% and the “% trachea constriction at 30 nM” value was determined as 55%. For the same compound, the “% trachea constriction at 0.1 μM” value in the data set with rat trachea rings [2] (0.1 μM, in % of the constriction induced by 50 mM KCl) is recorded as 103%.
`CCc1cc(-c2noc(-c3cc(OC)nc(C4CCCC4)c3)n2)cc(C)c1OC[C@@H](O)CNCCO` [Example 3] showed an EC50 in data set [1] of 8.3 nM. Moreover, in the data set with circulating lymphocytes, the change in vivo at 10 mg/kg is -25%. In addition, in the data set on rat trachea rings [2] (setting [4]), the “% trachea constriction at 3 μM” value is on record as below 5%, the “% trachea constriction at 10 μM” value is below 5% and the “% trachea constriction at 30 μM” value is below 5%. In addition, the activation at 1 µM with rat trachea rings [2] was below 5%.
As to `COc1cc(-c2nc(-c3cc(C)c(OCCNCCO)c(Cl)c3)no2)cc(C2CCCC2)n1` [Example 45, 2-((2-(2-Chloro-4-(5-(2-cyclopentyl-6-methoxypyridin-4-yl)-1,2,4-oxadiazol-3-yl)-6-methylphenoxy)ethyl)amino)ethanol], in data set [1], a half-maximal response (EC50) required 1.7 nM. In addition, the change in vivo at 10 mg/kg in the data set with circulating lymphocytes is -72%. In the data set with rat trachea rings [2] (setting [4]), the “% trachea constriction at 3 μM” value is below 5% and the “% trachea constriction at 10 μM” value is 52%. In addition, the activation at 1 µM with rat trachea rings [2] was below 5%. In addition, the “concentration at which significant (or full) rat trachea constriction is shown” value in the data set with rat trachea rings [2] (rat trachea rings) turned out to be 10000 nM.
`CCc1cc(-c2noc(-c3cc(OC)nc(C4CCCC4)c3)n2)cc(C)c1OCC(=O)NCCO` [Example 13, 2-(4-(5-(2-Cyclopentyl-6-methoxypyridin-4-yl)-1,2,4-oxadiazol-3-yl)-2-ethyl-6-methylphenoxy)-N-(2-hydroxyethyl)acetamide] yielded an EC50 in data set [1] of 2.4 nM. The change in vivo at 10 mg/kg with circulating lymphocytes was -77%. Further, the “% trachea constriction at 10 μM” value in the data set with rat trachea rings [2] (setting [4]) was below 5%. For the same compound, the activation at 1 µM in the data set with rat trachea rings [2] is below 5%.
In turn, `CCc1cc(-c2noc(-c3cc(OC)nc(C4CCCC4)c3)n2)cc(C)c1OCC(=O)O` [Example 5, 2-(4-(5-(2-Cyclopentyl-6-methoxypyridin-4-yl)-1,2,4-oxadiazol-3-yl)-2-ethyl-6-methylphenoxy)acetic acid] displayed an EC50 in data set [1] of 1.6 nM. In the data set on circulating lymphocytes, the change in vivo at 10 mg/kg is -35%. Also, in the data set on rat trachea rings [2] (setting [4]), the “% trachea constriction at 10 nM” value is below 5%, the “% trachea constriction at 30 nM” value is recorded as below 5% and the “% trachea constriction at 0.3 μM” value is given as 84%. In addition, in the data set on rat trachea rings [2], the activation at 0.1 µM came to 66% and the activation at 1 µM was found to be 124%.
With `CCc1cc(-c2nc(-c3cc(OC)nc(C4CCCC4)c3)no2)cc(C)c1OCCCC(=O)O` [Example 54, 4-(4-(3-(2-Cyclopentyl-6-methoxypyridin-4-yl)-1,2,4-oxadiazol-5-yl)-2-ethyl-6-methylphenoxy)butanoic acid], a half-maximal response in data set [1] (EC50) required 0.1 nM. Besides, in the data set on circulating lymphocytes, the change in vivo at 10 mg/kg was -72%. Moreover, in the data set with rat trachea rings [2] (setting [4]), the “% trachea constriction at 30 nM” value is below 5% and the “% trachea constriction at 0.3 μM” value came out at 55%. Besides, in the data set with rat trachea rings [2], the activation at 0.1 µM amounted to 5.6% and the activation at 1 µM came to 76%.
Take `CCc1cc(-c2noc(-c3cc(OC)nc(C4CCCC4)c3)n2)cc(C)c1OCCNCC(=O)O` [Example 7, 2-((2-(4-(5-(2-Cyclopentyl-6-methoxypyridin-4-yl)-1,2,4-oxadiazol-3-yl)-2-ethyl-6-methylphenoxy)ethyl)amino)acetic acid]: it took 1.5 nM to reach a half-maximal effect in data set [1] (EC50). The change in vivo at 10 mg/kg in the data set on circulating lymphocytes is -70%. Besides, in the data set on rat trachea rings [2] (setting [4]), the “% trachea constriction at 10 nM” value is on record as below 5% and the “% trachea constriction at 0.3 μM” value was below 5%. In addition, in the data set on rat trachea rings [2], the activation at 0.1 µM was below 5% and the activation at 1 µM was found to be 68%. The “concentration at which significant (or full) rat trachea constriction is shown” value in the data set on rat trachea rings [2] (rat trachea rings) came out at 1000 nM.
